Results taken from patent publication US20230011398A1, “COMBINATION THERAPY APPROACH TO ELIMINATE HIV INFECTIONS” (priority 2019, published 2023).

Test system: CMT latently infected with HIV-1
Test: HIV-1 latency reversal in latently infected central memory T cells (p24 staining, HIV-1 mRNA RT-PCR)
Assay type: cell-based, human
Details: latently infected cells, pol RT-PCR
Source text: Flow cytometry. The following antibodies from Biolegend were used for flow cytometry: Pacific Blue-anti-mouse CD45 (1:100, 103126, clone 30-F11,) APC-anti-human CD45 (1:100, 304012, clone HI30), Pacific Blue-anti-human CD19 (1:100, 302232, clone HIB19), PE-anti-human CD4 (1:100, 317414, clone OKT4), APC/Fire-750-anti-human CD8 (1:100, 34474, clone SK1), FITC-anti-human CD56 (1:100, 392413, clone QA17A16), Pacific Blue-anti-human CD19 (1:100, 302232, clone HIB19), Pacific Blue-anti-human CD3 (1:100, 300329, clone HIT3a), PE/Cy7-anti-HLA-HLA-DR, DP, DQ (1:100, 361708, clone Tü139), PerCP/Cy5.5-anti-human CD11b (1:100, 301327, clone ICRF44), APC/Fire-750-anti-human CD163 (1:100, 333633, clone GHI/61), PE-anti-human CD123 (1:100, 306005, clone 6H6), Alexa Fluor 488 anti-human CD11c (1:100, 301618, clone 3.9), PerCP/Cy5.5-anti-human CD3 (1:100, 300328, clone HIT3a), PerCP/Cy5.5 anti-human CD123 (1:100, 306016, clone 6H6), FITC-anti-mouse CD45 (1:100, 103108, clone 30-F11), PE/Cy7 anti-human CD197 (CCR7) (1:100, 353226, clone G043H7), PE-anti-human CD45R0 (1:100, 304244, clone UCHL1), FITC-anti-human CD45RA (1:100, 304148, clone HI100) and Alexa Fluor 488-anti-CD68 (1:30, 333812, clone Y1/82A), PerCP/Cy5.5-anti-human CD19 (1:100, 302230, clone HIB19), PE-anti-human CD27 (1:100, 356406, clone M-T271) and Pacific Blue-anti-human IgD (1:100, 348224, clone IA6-2). PE-anti-human CD3 (1:100, 556612, clone SP34) and V50-anti-human CD4 (1:100, 560345, clone RPA-T4) were from BD Biosciences. The cells stained with indicated antibodies were analyzed using a BD LSR II flow cytometer (BD Biosciences). To detect HIV-1 p24, spleen cells from Hu-HSC mice were stimulated with 5 μg/ml PHA (Sigma) and 6 ng/ml IL-2 (Biolegend). The cells were stained for T cell markers, followed by fixation and permeabilization using the Cytofix/Cytoperm buffer (BD Bioscience) and intracellular staining with PE-conjugated anti-p24 (1:30, 6604667, clone KC57, Beckman Coulter). The cells were analyzed by flow cytometry using a BD LSR II flow cytometer (BD Bioscience) and FlowJo software (version 10.5.3, BD Bioscience).
T cell isolation and infection with HIV-1. Peripheral blood mononuclear cells (PBMCs) of anonymous healthy donors from the Gulf Coast Blood Center were used to purify CD4^+ T cells with anti-CD4 MACS beads (Miltenyi Biotec). CD3^+CD4^+CD45RA^+CD45RO^−CCR7^+ naïve T cells, CD3^+CD4^+CD45RA^−CD45RO^+CCR7+ central memory T cells (CMT) and CD3^+CD4^+CD45RA^−CD45RO^+CCR7^− effector memory T cells (EMT) were sorted using a BD FACSAria flow cytometer (BD Bioscience). Naive CD4^+ T cells were stimulated with 5 μg/ml PHA and 6 ng/ml IL-2 in RPMI complete medium for 2 days to generate activated CD4^+ T cells. Sorted T cell subsets or activated T cells were infected with HIV-1 CXCR4-tropic NL4-3 or CCRS-tropic AD8 (both virus clones were obtained from the NIH AIDS Reagent Program) at the indicated MOI for 2 h. The cells were washed with PBS and cultured in RPMI complete medium containing 30 nM CCL19 (Biolegend) and 0.3 ng/ml IL-2 (Biolegend) and for 4 days to establish latent HIV infection as described.
Naïve T cells, activated T cells, CMT or EMT with or without infection with HIV-1 (NL4-3, 1 MOI) were cultured for 4 days in the presence of 30 nM CCL19 and 0.3 ng/ml IL-2 for 4 days to establish latent HIV infection. The cells with or without HIV-1 infections were stimulated with 0.1 μM IDB (Ingenol-3,20-dibenzonate, ENZO Life Sciences) in the presence of 0.2 μM ABT-263 (Adooq Bioscience), 2 μM SAR405 (MedChemExpress) or 10 μM chloroquine (CQ, Sigma) as indicated for 48 h. The cells were then incubated with 1 μM FITC-DEVD-FMK (Biovision), followed by staining with APC-Annexin V (Biolegend) and intracellular staining with PE-anti-HIV p24. The cells were analyzed by flow cytometry. The percentage of cell death was calculated by the loss of live cells negative for annexin V and DEVD staining by comparing treated and untreated groups: (untreated—treated)/untreated x 100%. […]

CC1=C[C@]23C(=O)[C@@H](C=C(COC(=O)c4ccccc4)[C@@H](O)[C@]2(O)[C@H]1OC(=O)c1ccccc1)[C@H]1[C@@H](C[C@H]3C)C1(C)C [IDB, ingenol 3,20-dibenzoate]
latency reversal observed by expression of HIV-1 mRNA after stimulation: Latency reversal was also observed
